According to patent US20240252493A1, “Apelin Receptor Modulators for Treating Age-Related Muscle Conditions” (BIOAGE LABS, INC., priority 2021, published 2024):

What was measured:
[1] = tested on: Pax7, MyoD, MyoG, Myf5, MyHC3, and MyHC8; assay: CTX-induced muscle injury: transcript levels of regeneration genes; assay type: in vivo, mice
Protocol: Impairment of muscle regeneration can contribute to age-related muscle weakness. This is particularly true in aged individuals who engage in physical activity. Exercise-induced muscle hypertrophy is linked to the capacity of muscle stem cells to be activated and promote regeneration. […] Mice were i.p injected with buprenorphine (Centravet, 0.1 mg/kg) 30 minutes before injury and the day after. The day of the injury, mice were anesthetized with isoflurane inhalation and hindlimbs were shaved. Then, 10 μM of cardiotoxin (CTX, Latoxan, #L8102) was injected through two injections of 25 μl into the left tibialis muscle and two injections of 50 μl into the left gastrocnemius muscle, using a 22-gauge needle (Hamilton). Mice were euthanized 3 and 7 days after injury by cervical dislocation, muscles (PBS- and CTX-injected) were cut in two parts, one being snap frozen into liquid nitrogen for total RNA extraction and the other part being embedded into OCT, frozen in isopentane cooled with liquid nitrogen for histological analysis.

tibialis of aged mice = assay: CTX-induced muscle injury: histology (cross-sectional area, centrally nucleated fibers); assay type: in vivo
Protocol: Impairment of muscle regeneration can contribute to age-related muscle weakness. This is particularly true in aged individuals who engage in physical activity. Exercise-induced muscle hypertrophy is linked to the capacity of muscle stem cells to be activated and promote regeneration.
Mice were i.p injected with buprenorphine (Centravet, 0.1 mg/kg) 30 minutes before injury and the day after. The day of the injury, mice were anesthetized with isoflurane inhalation and hindlimbs were shaved. Then, 10 μM of cardiotoxin (CTX, Latoxan, #L8102) was injected through two injections of 25 μl into the left tibialis muscle and two injections of 50 μl into the left gastrocnemius muscle, using a 22-gauge needle (Hamilton). Mice were euthanized 3 and 7 days after injury by cervical dislocation, muscles (PBS- and CTX-injected) were cut in two parts, one being snap frozen into liquid nitrogen for total RNA extraction and the other part being embedded into OCT, frozen in isopentane cooled with liquid nitrogen for histological analysis.
Mouse muscle samples were dissected and cryopreserved in OCT frozen in liquid nitrogen cooled isopentane. Samples were then sectioned at 10 μm on a cryostat and post-fixed with 4% Paraformaldehyde (PFA) for 15min at room temperature. Muscle frozen sections (10 μm) were stained by helaun/eosin or immune-labeled for laminin (Abcam) and embryonic myosin. Briefly, sections were blocked 1 h in PBS plus 4% BS(a), 2% goat serum, 0.01% Triton X-100. Sections were then incubated overnight with primary antibodies. After washes in PBS, sections were incubated 1 h with secondary antibodies anti-Ig2b AF 488 (Life Technology). Slides were finally mounted in ProLong Gold antifade Reagent (Molecular probes by Life Technology) with DAPI. Images were captured using a digital camera (Nanozoomer, Hamamatsu) attached to a motorized fluorescence microscope or using Olympus VS120 Virtual Microscopy Slide Scanning System. The area covered by eMHC-positive fibers and degenerated area was determined manually across the entire sections using the VS-ASW FL software measurement tools. The size of myofibers with central nuclei was calculated from laminin/DAPI staining on all fibers of the section and area determination were performed across the entire sections, using an automated image processing algorithm developed internally using the MetaXpress software (Molecular Devices).

[2] = gastrocnemius, aged mice, 3 or 7 days, apelin 0.5 μmol/kg/day, BGE-105 50 and 200 mg/kg/day
[3] = gastrocnemius, young mice, 3 or 7 days, apelin 0.5 μmol/kg/day, BGE-105 50 and 200 mg/kg/day
[4] = tibialis anterior, aged mice, 7 days, apelin 0.5 μmol/kg/day, BGE-105 50 and 200 mg/kg/day
[5] = tibialis, young mice, 3 or 7 days, apelin 0.5 μmol/kg/day, BGE-105 50 and 200 mg/kg/day

CSCC[C@H](NC(=O)[C@@H]1CCCN1C(=O)CNC(=O)[C@H](CCCCN)NC(=O)[C@H](Cc1c[nH]cn1)NC(=O)[C@H](CO)NC(=O)[C@H](CC(C)C)NC(=O)[C@H](CCCNC(=N)N)NC(=O)[C@@H]1CCCN1C(=O)[C@H](CCCNC(=N)N)NC(=O)[C@@H]1CCC(=O)N1)C(=O)N1CCC[C@H]1C(=O)N[C@@H](Cc1ccccc1)C(=O)O [Pyr^1-Apelin-13, reference compound]
Pax7 transcript levels ([1]; gastrocnemius, aged (18-month-old) mice, 3 or 7 days, apelin 0.5 μmol/kg/day, BGE-105 50 and 200 mg/kg/day): no significant change
MyoD transcript levels ([1]; gastrocnemius, aged mice, 3 and 7 days, apelin 0.5 μmol/kg/day, BGE-105 50 and 200 mg/kg/day): significant increase
Myf5 transcript levels [1, 2]: no significant change
MyoG transcript levels [1, 2]: no significant change
MyHC8 transcript levels ([1]; gastrocnemius, aged mice, any time point, any treatment): does not show a change
Pax7 transcript levels ([1]; gastrocnemius, young (3-month-old) mice, 3 or 7 days, apelin 0.5 μmol/kg/day, BGE-105 50 and 200 mg/kg/day): no change
Myf5 transcript levels [1, 3]: no change
MyoD transcript levels [1, 3]: no change
MyoG transcript levels [1, 3]: no change
MyHC8 transcript levels ([1]; gastrocnemius, young mice, 3 days, apelin 0.5 μmol/kg/day, BGE-105 50 and 200 mg/kg/day): non-significant increase
Pax7 transcript levels ([1]; tibialis anterior, aged (18-month-old) mice, 7 days post cardiotoxin, apelin 0.5 μmol/kg/day, BGE-105 50 and 200 mg/kg/day): significant increase
MyoD transcript levels ([1]; tibialis anterior, aged mice, 3 and 7 days post cardiotoxin, apelin 0.5 μmol/kg/day, BGE-105 50 and 200 mg/kg/day): significant increase
MyHC3 transcript levels [1, 4]: significant increase
Myf5 transcript levels [1, 4]: significant change
MyoG transcript levels [1, 4]: significant increase
Pax7 transcript levels ([1]; tibialis, young (3-month-old) mice, 3 or 7 days, apelin 0.5 μmol/kg/day, BGE-105 50 and 200 mg/kg/day): no change
MyHC3 transcript levels [1, 5]: no significant change
MyHC8 transcript levels [1, 5]: no significant change
Myf5 transcript levels [1, 5]: no difference
MyoD transcript levels [1, 5]: no significant increase
MyoG transcript levels [1, 5]: no difference
amount of centrally nucleated myofibers (CNM) (tibialis of aged mice; 18-months old mice after cardiotoxin, apelin 0.5 μmol/kg/day, BGE-105 200 mg/kg/day): significant increase
cross-sectional area of the tibialis (tibialis of aged mice; aged mice, 3 and 7 days post cardiotoxin, apelin, BGE-105 50 and 200 mg/kg/d): significant increase in cross sectional area
